From patent US11040027B2, “Protein kinase inhibitors for promoting liver regeneration or reducing or preventing hepatocyte death” (HEPAREGENIX GMBH, priority 2017, dated 2021)
pIC50: −log10 of the molar value.

Assays:
MKK4 = molecular target: T1, MKK4 (Homo sapiens, UniProt P45985); assay: KINOMEscan competition binding assay, MKK4; conditions: read-out: Potency MKK4 (derived from % of control values, PoC)
T1 sequence (P45985 84-399): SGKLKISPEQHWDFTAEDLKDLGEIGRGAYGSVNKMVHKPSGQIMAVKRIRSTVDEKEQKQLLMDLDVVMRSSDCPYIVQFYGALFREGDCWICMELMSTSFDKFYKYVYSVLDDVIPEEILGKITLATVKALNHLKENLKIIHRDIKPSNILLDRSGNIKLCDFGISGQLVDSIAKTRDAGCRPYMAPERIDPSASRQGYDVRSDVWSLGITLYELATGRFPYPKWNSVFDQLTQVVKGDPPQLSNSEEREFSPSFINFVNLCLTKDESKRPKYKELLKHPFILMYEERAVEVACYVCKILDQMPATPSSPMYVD
Experimental: (§4) The assay was performed by combining three components: DNA-tagged kinase; immobilized ligand; and a test compound. The ability of the test compound to compete with the immobilized ligand was measured via quantitative PCR of the DNA tag.
(§5) For investigation of the affinity to MKK4, MKK7 and JNK1, the kinases were produced in HEK-293 cells and subsequently tagged with DNA for qPCR detection. […] The liganded beads were blocked with excess biotin and washed with blocking buffer (SEABLOCK™ (Pierce), 1% BSA, 0.05% TWEEN®20, 1 mM DTT) to remove unbound ligand and to reduce nonspecific binding. […] All reactions were performed in polystyrene 96-well plates in a final volume of 0.135 mL. […] The kinase concentration in the eluates was measured by qPCR.
(§6) The test compounds were provided as 10 mM stock solutions. The test solutions at indicated final concentrations were prepared at DiscoverX.

JNK1 = JNK1 (Homo sapiens, UniProt P45983); assay: KINOMEscan competition binding assay, selectivity JNK1 versus MKK4; conditions: ratio of percent of control
Sequence of JNK1 (P45983 1-384 isoform P45983-2): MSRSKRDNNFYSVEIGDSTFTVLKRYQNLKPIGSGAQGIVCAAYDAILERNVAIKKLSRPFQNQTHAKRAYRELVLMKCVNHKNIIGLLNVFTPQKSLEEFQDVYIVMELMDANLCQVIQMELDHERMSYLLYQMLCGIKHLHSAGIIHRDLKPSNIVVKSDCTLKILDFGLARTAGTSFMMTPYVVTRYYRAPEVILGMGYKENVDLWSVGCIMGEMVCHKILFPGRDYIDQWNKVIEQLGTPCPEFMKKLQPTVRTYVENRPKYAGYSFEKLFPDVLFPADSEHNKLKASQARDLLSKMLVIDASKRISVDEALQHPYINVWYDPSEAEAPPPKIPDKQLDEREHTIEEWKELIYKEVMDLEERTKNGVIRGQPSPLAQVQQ
Experimental: as §4, §5, §6

MKK4 active = molecular target: T2, MKK4 active (Homo sapiens, UniProt P45985); assay: Radiometric protein kinase assay, MKK4 active; type: biochemical; conditions: substrate JNK1 KRKR, ATP 0.2 μM, read-out: MKK4 (potency derived from IC50-values)
T2 construct: purchased ProQinase 0948-0000-1
T2 sequence (P45985 1-399): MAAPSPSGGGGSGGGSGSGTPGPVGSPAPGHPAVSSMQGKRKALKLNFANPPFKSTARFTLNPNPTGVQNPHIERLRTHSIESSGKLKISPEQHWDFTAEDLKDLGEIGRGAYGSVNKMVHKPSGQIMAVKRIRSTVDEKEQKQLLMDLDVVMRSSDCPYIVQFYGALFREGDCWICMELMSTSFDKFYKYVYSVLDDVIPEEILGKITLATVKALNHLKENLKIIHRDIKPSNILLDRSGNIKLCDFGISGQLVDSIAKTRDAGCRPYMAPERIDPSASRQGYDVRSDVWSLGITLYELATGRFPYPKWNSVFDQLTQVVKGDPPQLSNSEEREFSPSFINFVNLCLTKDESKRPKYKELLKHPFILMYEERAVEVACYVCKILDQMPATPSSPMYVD
Experimental: (§1) A radiometric protein kinase assay was used for measuring the kinase activity of the respective protein kinases. All kinase assays were performed in 96-well polypropylene plates. After the reactions were stopped, the assay mixtures were transferred to 96-well MSFC filter-plates (Millipore). The reaction mix was passed through the filter membrane by aspiration, the membrane was washed 3 times with 150 mM H3PO4, once with ethanol, dried and liquid scintillation cocktail was added. Radioactivity was determined by counting of the samples in a Microbeta multiwell scintillation counter (Wallac).
(§2) b) Single Kinases • 20 μl standard assay buffer • 5 μl compound in 10% DMSO • 20 μl enzyme-substrate mix • 10 μl of substrate solution
(§3) The reaction cocktails were incubated at 30° C. for 30 minutes.

BRaf = BRaf (Homo sapiens, UniProt P15056); assay: KINOMEscan competition binding assay, selectivity BRaf versus MKK4; conditions: Test conc. 0.1 μM; ratio of percent of control; N/E* per footnote
Sequence of BRaf (P15056 whole entry): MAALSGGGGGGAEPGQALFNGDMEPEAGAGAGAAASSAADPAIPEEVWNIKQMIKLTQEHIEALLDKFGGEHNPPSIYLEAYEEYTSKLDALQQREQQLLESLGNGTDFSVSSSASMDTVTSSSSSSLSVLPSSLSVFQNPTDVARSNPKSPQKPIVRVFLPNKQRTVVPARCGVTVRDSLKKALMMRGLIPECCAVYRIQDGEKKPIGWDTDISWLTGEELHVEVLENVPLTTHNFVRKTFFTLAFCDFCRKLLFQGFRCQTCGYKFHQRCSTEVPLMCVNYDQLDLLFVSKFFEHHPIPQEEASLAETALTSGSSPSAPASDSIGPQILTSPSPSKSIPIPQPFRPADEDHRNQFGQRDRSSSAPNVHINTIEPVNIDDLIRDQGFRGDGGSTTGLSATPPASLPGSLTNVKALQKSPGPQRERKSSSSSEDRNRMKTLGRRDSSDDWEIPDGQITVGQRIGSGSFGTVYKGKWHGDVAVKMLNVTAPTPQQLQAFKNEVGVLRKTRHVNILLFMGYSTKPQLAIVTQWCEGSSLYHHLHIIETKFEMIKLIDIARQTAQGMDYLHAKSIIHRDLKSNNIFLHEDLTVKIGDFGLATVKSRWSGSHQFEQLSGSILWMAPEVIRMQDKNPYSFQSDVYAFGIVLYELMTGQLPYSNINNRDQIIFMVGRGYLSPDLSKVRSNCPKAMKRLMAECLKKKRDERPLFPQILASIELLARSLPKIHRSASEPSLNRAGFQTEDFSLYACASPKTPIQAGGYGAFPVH

MEKK2 = molecular target: T3, MEKK2 (Homo sapiens, UniProt Q9Y2U5); assay: Radiometric protein kinase assay, MEKK2; type: biochemical; conditions: substrate Casein, ATP 0.2 μM; read-out: MEKK2 (potency derived from IC50-values)
T3 construct: purchased ProQinase 0583-0000-1
T3 sequence (Q9Y2U5 1-619): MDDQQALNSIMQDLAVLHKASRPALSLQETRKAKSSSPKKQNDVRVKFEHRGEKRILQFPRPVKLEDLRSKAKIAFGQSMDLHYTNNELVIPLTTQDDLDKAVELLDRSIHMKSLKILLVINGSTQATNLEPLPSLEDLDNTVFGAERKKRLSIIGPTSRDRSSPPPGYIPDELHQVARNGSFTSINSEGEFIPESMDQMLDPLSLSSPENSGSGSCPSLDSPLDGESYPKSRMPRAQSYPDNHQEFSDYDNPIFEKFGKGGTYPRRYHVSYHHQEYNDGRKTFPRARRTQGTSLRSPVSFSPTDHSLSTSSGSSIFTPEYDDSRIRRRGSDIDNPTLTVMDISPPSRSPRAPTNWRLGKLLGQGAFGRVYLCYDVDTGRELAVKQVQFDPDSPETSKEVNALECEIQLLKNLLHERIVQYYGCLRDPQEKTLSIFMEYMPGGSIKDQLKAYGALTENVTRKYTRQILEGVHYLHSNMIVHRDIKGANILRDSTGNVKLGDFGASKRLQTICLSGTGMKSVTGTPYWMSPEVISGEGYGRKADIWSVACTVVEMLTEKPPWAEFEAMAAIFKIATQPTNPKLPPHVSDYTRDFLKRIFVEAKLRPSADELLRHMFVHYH
Experimental: as §1, §2, §3

MKK7 = molecular target: T4, MKK7 (Homo sapiens, UniProt O14733); assay: KINOMEscan competition binding assay, selectivity MKK7 versus MKK4; conditions: Test conc. 0.1 μM; ratio of percent of control; N/E* per footnote
T4 sequence (O14733 1-419): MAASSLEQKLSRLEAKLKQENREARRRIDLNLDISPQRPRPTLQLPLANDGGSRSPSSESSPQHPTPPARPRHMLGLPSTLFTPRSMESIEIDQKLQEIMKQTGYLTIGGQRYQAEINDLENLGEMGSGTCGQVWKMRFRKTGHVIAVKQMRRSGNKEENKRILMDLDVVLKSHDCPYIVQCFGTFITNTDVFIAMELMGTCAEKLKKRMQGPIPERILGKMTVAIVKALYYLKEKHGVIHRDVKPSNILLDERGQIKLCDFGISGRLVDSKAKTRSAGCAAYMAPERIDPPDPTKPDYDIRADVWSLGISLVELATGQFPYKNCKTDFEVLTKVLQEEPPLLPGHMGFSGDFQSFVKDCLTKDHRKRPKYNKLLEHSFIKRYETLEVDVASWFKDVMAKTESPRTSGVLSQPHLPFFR
Experimental: as §4, §5, §6

[1] = Test conc 0.1 μM, N/E* = PoC for JNK1 = 100

Structure (SMILES) | remaining binding at 0.1 µM (MKK4) | Selectivity JNK1/MKK4 (JNK1; [1]) | pIC50 (MKK4 active) | Selectivity BRaf/MKK4 (BRaf) | pIC50 (MEKK2) | Selectivity MKK7/MKK4 (MKK7) | Selectivity JNK1/MKK4 (JNK1; Test conc 10 μM)
CS(=O)(=O)Nc1cccc(C(=O)c2c[nH]c3ncc(-c4cc5c(cc4Cl)OCCO5)cc23)c1F [Example 48] | 10 to 30% | 8.4 | 5.00 to 6.00 | N/E* (PoC for JNK1 = 100) | < 5.00 | 8.7 | –
CCCCS(=O)(=O)Nc1cccc(C(=O)c2c[nH]c3ncc(-c4ccc5c(c4)OCCO5)cc23)c1F [Example 54] | < 10% | 55 | > 6.30 | 36 | 5.00 to 6.00 | 61 | –
CCCCS(=O)(=O)Nc1cccc(C(=O)c2c[nH]c3ncc(-c4ccc(OC)cc4Cl)cc23)c1F [Example 52] | < 10% | 17 | > 6.30 | N/E* (PoC for JNK1 = 100) | < 5.00 | N/E* (PoC for JNK1 = 100) | –
CCCCS(=O)(=O)Nc1cccc(C(=O)c2c[nH]c3ncc(-c4ccc5c(c4)OCO5)cc23)c1F [Example 53] | < 10% | N/E* (PoC for JNK1 = 100) | > 6.30 | 56 | 5.00 to 6.00 | N/E* (PoC for JNK1 = 100) | –
Cc1cc(F)ccc1-c1cnc2[nH]cc(C(=O)c3cccc(NS(C)(=O)=O)c3F)c2c1 [Example 37, N-(2-Fluoro-3-(5-(4-fluoro-2-methylphenyl)-1H-pyrrolo[2,3-b]pyridine-3-carbonyl)phenyl)methanesulfonamide] | < 10% | N/E* (PoC for JNK1 = 100) | 6.00 to 6.30 | 13.2 | < 5.00 | 14.1 | –
CCCS(=O)(=O)Nc1ccc(F)c(C(=O)c2c[nH]c3ncc(-c4ccccc4Cl)cc23)c1F [Example 13, N-(3-(5-(2-Chlorophenyl)-1H-pyrrolo[2,3-b]pyridine-3-carbonyl)-2,4-difluorophenyl)propane-1-sulfonamide] | 10 to 30% | – | > 6.30 | 10.5 | 5.00 to 6.00 | 10 | >100
CS(=O)(=O)Nc1cccc(C(=O)c2c[nH]c3ncc(-c4cc5c(cc4Cl)OCO5)cc23)c1F [Example 47] | < 10% | 10 | > 6.30 | N/E* (PoC for JNK1 = 100) | 5.00 to 6.00 | 9.7 | –
CS(=O)(=O)Nc1cccc(C(=O)c2c[nH]c3ncc(-c4ccccc4Cl)cc23)c1F [Example 38, N-(3-(5-(2-Chlorophenyl)-1H-pyrrolo[2,3-b]pyridine-3-carbonyl)-2-fluorophenyl) methanesulfonamide] | 10 to 30% | N/E* (PoC for JNK1 = 100) | > 6.30 | 5.3 | 5.00 to 6.00 | 5.3 | –
CCCS(=O)(=O)Nc1ccc(F)c(C(=O)c2c[nH]c3ncc(-c4ccc(F)cc4C)cc23)c1F [Example 12, N-(2,4-Difluoro-3-(5-(4-fluoro-2-methylphenyl)-1H-pyrrolo[2,3-b]pyridine-3-carbonyl)phenyl)propane-1-sulfonamide] | 10 to 30% | – | 6.00 to 6.30 | 7.8 | < 5.00 | 10 | >100
CCCCS(=O)(=O)Nc1cccc(C(=O)c2c[nH]c3ncc(-c4cc5c(cc4Cl)OCCO5)cc23)c1F [Example 56] | < 10% | 24 | > 6.30 | N/E* (PoC for JNK1 = 100) | < 5.00 | N/E* (PoC for JNK1 = 100) | –

The next lines start with the values.

remaining binding at 0.1 µM (MKK4) | Selectivity JNK1/MKK4 (JNK1; [1]) | pIC50 (MKK4 active) | Selectivity BRaf/MKK4 (BRaf) | pIC50 (MEKK2) | Selectivity MKK7/MKK4 (MKK7) | Selectivity JNK1/MKK4 (JNK1; Test conc 10 μM) | Structure (SMILES)
10 to 30% | N/E* (PoC for JNK1 = 100) | > 6.30 | 4.7 | 5.00 to 6.00 | 5.6 | – | CCCS(=O)(=O)Nc1ccc(F)c(C(=O)c2c[nH]c3ncc(-c4ccc(F)cc4Cl)cc23)c1F [Example 40, N-(3-(5-(2-Chloro-4-fluorophenyl)-1H-pyrrolo[2,3-b]pyridine-3-carbonyl)-2,4-difluorophenyl)propane-1-sulfonamide]
> 30% | N/E* (PoC for JNK1 = 100) | 5.00 to 6.00 | N/E* (PoC for JNK1 = 100) | < 5.00 | N/E* (PoC for JNK1 = 100) | – | CC(C)c1ccc(-c2cnc3[nH]cc(C(=O)c4cccc(NS(C)(=O)=O)c4F)c3c2)cc1 [Example 45]
< 10% | N/E* (PoC for JNK1 = 100) | > 6.30 | N/E* (PoC for JNK1 = 100) | 5.00 to 6.00 | 10 | – | COc1ccc(-c2cnc3[nH]cc(C(=O)c4cccc(NS(C)(=O)=O)c4F)c3c2)c(Cl)c1 [Example 46]
< 10% | – | < 5.00 | 4.2 | < 5.00 | 270 | >100 | CCCS(=O)(=O)Nc1ccc(F)c(C(=O)c2c[nH]c3ncc(-c4ccc5c(c4)OCO5)cc23)c1F [Example 10, N-(3-(5-(Benzo[d][1,3]dioxol-5-yl)-1H-pyrrolo[2,3-b]pyridine-3-carbonyl)-2,4-difluorophenyl)propane-1-sulfonamide]
> 30% | – | 6.00 to 6.30 | 0.9 | < 5.00 | 3.0 | >100 | CCCS(=O)(=O)Nc1ccc(F)c(C(=O)c2c[nH]c3ncc(-c4ccc(C(C)C)cc4)cc23)c1F [Example 7, N-(2,4-Difluoro-3-(5-(4-isopropylphenyl)-1H-pyrrolo[2,3-b]pyridine-3-carbonyl)phenyl)propane-1-sulfonamide]
< 10% | 14 | > 6.30 | N/E* (PoC for JNK1 = 100) | < 5.00 | N/E* (PoC for JNK1 = 100) | – | CCCCS(=O)(=O)Nc1cccc(C(=O)c2c[nH]c3ncc(-c4cc5c(cc4Cl)OCO5)cc23)c1F [Example 55]
